Test [1] has as its system Non-Small Cell Lung HOP-92. Nature of the test: NCI in vitro cell line screen (SRB), single dose. It counts as cell-based, human. The following applies: Non-Small Cell Lung HOP-92, single dose of 10 μM. The protocol: (§1) Four of the preliminary lead compounds: three nucleosides (JT-1-10, VAL-1-15/42, VAL-1-16) and one nucleobase (KB-1-17)—were submitted to the National Cancer Institute for the in vitro cell line screening project (IVCLSP). The screening consisted in the evaluation of this compound against the 60 cell lines at a single dose of 10 μM.
(§2) The human tumor cell lines of the cancer screening panel are grown in RPMI 1640 medium containing 5% fetal bovine serum and 2 mM L-glutamine. For a typical screening experiment, cells are inoculated into 96 well microtiter plates in 100 μL at plating densities ranging from 5,000 to 40,000 cells/well depending on the doubling time of individual cell lines. After cell inoculation, the microtiter plates are incubated at 37° C., 5% CO2, 95% air and 100% relative humidity for 24 h prior to addition of experimental drugs.
(§3) After 24 h, two plates of each cell line are fixed in situ with TCA, to represent a measurement of the cell population for each cell line at the time of drug addition (Tz). Experimental drugs are solubilized in dimethyl sulfoxide at 400-fold the desired final maximum test concentration and stored frozen prior to use. At the time of drug addition, an aliquot of frozen concentrate is thawed and diluted to twice the desired final maximum test concentration with complete medium containing 50 μg/ml gentamicin. Additional four, 10-fold or ½ log serial dilutions are made to provide a total of five drug concentrations plus control. Aliquots of 100 μl of these different drug dilutions are added to the appropriate microtiter wells already containing 100 μl of medium, resulting in the required final drug concentrations.
(§4) Following drug addition, the plates are incubated for an additional 48 h at 37° C., 5% CO2, 95% air, and 100% relative humidity. For adherent cells, the assay is terminated by the addition of cold TCA. Cells are fixed in situ by the gentle addition of 50 μl of cold 50% (w/v) TCA (final concentration, 10% TCA) and incubated for 60 minutes at 4° C. The supernatant is discarded, and the plates are washed five times with tap water and air dried. Sulforhodamine B (SRB) solution (100 μl) at 0.4% (w/v) in 1% acetic acid is added to each well, and plates are incubated for 10 minutes at room temperature. After staining, unbound dye is removed by washing five times with 1% acetic acid and the plates are air dried. Bound stain is subsequently solubilized with 10 mM trizma base, and the absorbance is read on an automated plate reader at a wavelength of 515 nm. For suspension cells, the methodology is the same except that the assay is terminated by fixing settled cells at the bottom of the wells by gently adding 50 μl of 80% TCA (final concentration, 16% TCA). Using the seven absorbance measurements [time zero, (Tz), control growth, (C), and test growth in the presence of drug at the five concentration levels (Ti)], the percentage growth is calculated at each of the drug concentrations levels. Percentage growth inhibition is calculated as:
(§5) [(Ti−Tz)/(C−Tz)]×100 for concentrations for which Ti>/=Tz
(§6) [(Ti−Tz)/Tz]×100 for concentrations for which Ti<Tz.
(§7) Three dose response parameters are calculated for each experimental agent. Growth inhibition of 50% (GI50) is calculated from [(Ti−Tz)/(C−Tz)]×100=50, which is the drug concentration resulting in a 50% reduction in the net protein increase (as measured by SRB staining) in control cells during the drug incubation. The drug concentration resulting in total growth inhibition (TGI) is calculated from Ti=Tz. The LC50 (concentration of drug resulting in a 50% reduction in the measured protein at the end of the drug treatment as compared to that at the beginning) indicating a net loss of cells following treatment is calculated from [(Ti−Tz)/Tz]×100=−50. […]

The test system of test [2] is CNS SF-268. Nature of the test: NCI in vitro cell line screen (SRB), single dose. Type of test: cell-based, human. Conditions: CNS SF-268, single dose of 10 μM. As for the experimental part: as §1, §2, §3, §4, §5, §6, §7
Test [3] has as its system Prostate PC-3. Nature of the test: NCI in vitro cell line screen (SRB), single dose. Conditions: Prostate PC-3, single dose of 10 μM. Type of test: cell-based, human. As for the experimental part:
as §1, §2, §3, §4, §5, §6, §7

The test system of test [4] is MCF7 (breast cancer) cells. Nature of the test: MTT cytotoxicity assay in MCF7 breast cancer cells. It counts as cell-based. Conditions: 65 hours incubation, read-out: IC50, viability of MCF7 cells from the MTT assay. As for the experimental part: The cyctoxicity of compounds was determined in MCF 7 (breast cancer) cells.
MCF7 cells were grown in RPMI 1640 media with 10 nM estrogen and 1 mM insulin. Cells were tyripsinized and resuspended at a density of 2.2×10^4 cells per mL. 500 μL of this suspension was added to each well in a 24 well plate. The plates were incubated at 37° C. and 5% CO2 atmosphere overnight. The media was changed, and plates were dosed in triplicate with compound dissolved in DMSO. Cells were dosed not to exceed 0.5% DMSO in solution. Cells were dosed to a final concentration of 100, 50, 25, 12.5, and 6.25 μM of compound. 5-Flurouracil was used as a positive control and dosed in the same manner. Plates were incubated for 65 hours prior to the addition of MTT solution. 500 μL of a 193 μg/mL MTT and media solution was added to each well. Plates were incubated for 3 hours. The MTT solution was removed and 500 μL of DMSO was added to each well. Cells were imaged using GS 800 Bio Rad scanner and Quality One Software. IC50 curves were determined by plotting viability verses compound concentration. Kaleidagraph software was used to calculate the R value for each logarithmic curve fitting.
In general terms: Tetrazolium dyes change colour on reduction, which living cells bring about.

The subject of test [5] is γ-H2AX. Nature of the test: Western blot of drug-treated MCF7 cells detecting double-strand break marker γ-H2AX. It counts as cell-based. Conditions: 4.5 μM, 16 hours, nuclear extract, two trials (FIG. 3). As for the experimental part:
Vehicle controls were simultaneously prepared by treatment with DMSO.
Nuclear proteins from both the drug-treated and control samples were conducted using NE-PER Nuclear and Cytoplasmic Extraction Kit (Thermo Scientific) using the manufacturer's protocol. In detail, cells were harvested by trypsin-EDTA and centrifuged at 500×g for 5 minutes. The cells were washed to remove traces of trypsin by suspending in 1×PBS, followed by centrifugation at 500×g for 2-3 minutes. The supernatant was removed leaving the cell pellet as dry as possible. A 200 μL volume of ice-cold cytoplasmic extraction reagent I (CER-I), treated Halt™ Protease & Phosphatase Inhibitor Cocktail (Thermo Scientific), was added to the pellet. The cell pellet was suspended by vortexing vigorously for 15 seconds and then incubated on ice for 10 minutes. The mixture is then treated with 11 μL of ice-cold cytoplasmic extraction reagent II (CER-II) and mixed by vortexing on the highest setting for 5 seconds followed by incubation on ice of one minute to allow complete release of cytoplasmic contents. […]
Protein concentration in each sample and control was determined by Bradford Assay using Coomassie Plus™ (Bradford) Assay Kit (Thermo Scientific), applying the manufacturer's instruction. […] The absorbance is then measured at 595 nm using a Synergy 4 plate reader (Biotek). […]

Like-named read-outs stand apart in the source and are kept apart here. Bounds are passed on as bounds.

The term IC50 denotes the point on the concentration scale where inhibition reaches its midpoint. Turning to `CC(C)(C)C(OCc1c[nH]c(=O)[nH]c1=O)c1ccccc1[N+](=O)[O-]` (centres unmarked) [KB-1-17, 5-[1-(2-nitrophenyl)-2,2-(dimethyl)propoxymethyl]uracil], the “Growth Percent” value in test [1] is given as 68%; in test [2], 91%; in test [3] it was 93%. Moreover, the IC50 in test [4] was 81 µM.
`O=c1[nH]c(=O)n([C@H]2C[C@H](O)[C@@H](CO)O2)cc1COC(c1ccccc1[N+](=O)[O-])C1CCCCC1` (some centres unmarked) [PRW-1-18, 5-[1-(2-nitro)phenyl-1-(cyclohexyl)methoxymethyl]-2′-deoxyuridine]: in test [4], the IC50 was 63 µM.
Still for that read-out and setting: the same measure for `CC(C)(C)CC(OCc1c[nH]c(=O)[nH]c1=O)c1ccccc1` (centres unmarked) [SL-1-7, 5-[1-phenyl-3,3-(dimethyl)butoxymethyl]uracil]: 37 µM; for `COc1cccc(C(OCc2cn([C@H]3C[C@H](O)[C@@H](CO)O3)c(=O)[nH]c2=O)C(C)(C)C)c1` (some centres unmarked) [SS-1-11, 5-[1-(3-methoxyphenyl)-2,2-(dimethyl)propoxymethyl]-2′-deoxyundine]: 66 µM.
On the same count and under the same terms, the same measure for `O=c1[nH]c(=O)n([C@H]2C[C@H](O)[C@@H](CO)O2)cc1COC(c1ccccc1)c1c([N+](=O)[O-])cccc1[N+](=O)[O-]` (some centres unmarked) [TZ-1-13F3, 5-[{(2,6-dinitrophenyl)phenyl}methoxymethyl]-2′-deoxyuridine]: 44 µM.
On to `CC(OCc1cn([C@H]2C[C@H](O)[C@@H](CO)O2)c(=O)[nH]c1=O)c1ccccc1` (some centres unmarked) [VAL-1-10, 5-[1-(phenyl)ethoxymethyl]-2′-deoxyuridine], for which the IC50 in test [4] (Homo sapiens, MCF7, 65 h) was over 200 µM.
Same read-out and setting: for `CC(OCc1cn([C@H]2C[C@H](O)[C@@H](CO)O2)c(=O)[nH]c1=O)c1ccccc1[N+](=O)[O-]` (some centres unmarked) [VAL-1-25, 5-[1-(2-nitrophenyl)ethoxymethyl]-2′-deoxyuridine] the value was about 170 µM.
On to `CC(OCc1cn([C@H]2C[C@H](O)[C@@H](CO)O2)c(=O)[nH]c1=O)c1ccccc1[N+](=O)[O-]` (some centres unmarked) [VAL-1-26, 5-[1-(2-nitrophenyl)ethoxymethyl]-2′-deoxyuridine], for which the half-inhibitory concentration (IC50) in test [4] is about 150 µM.
On the same count and under the same terms, for `CC(C)(C)C(OCc1cn([C@H]2C[C@H](O)[C@@H](CO)O2)c(=O)[nH]c1=O)c1ccccc1C#N` (some centres unmarked) [VAL-1-28, 5-[1-(2-cyanophenyl)-2,2-(dimethyl)propoxymethyl]-2′-deoxyuridine] the value was 106 µM.
On to `CC(C)(C)C(OCc1cn([C@H]2C[C@H](O)[C@@H](CO)O2)c(=O)[nH]c1=O)c1ccc(C#Cc2ccccc2)cc1[N+](=O)[O-]` (some centres unmarked) [VAL-1-36/38, 5-[1-(4-{2-phenylacetylenyl}-2-nitrophenyl)-2,2-(dimethyl)-1-propoxymethyl]-2′-deoxyuridine], for which the “double-strand break marker γ-H2AX (DNA damage response)” value in test [5] is “causes a DNA damage response”. The IC50 in test [4] was found to be 9 ± 1 µM.
As for `COCC#Cc1ccc(C(OCc2cn([C@H]3C[C@H](O)[C@@H](CO)O3)c(=O)[nH]c2=O)C(C)(C)C)c([N+](=O)[O-])c1` (some centres unmarked) [VAL-1-48, 5-[1-(4-{3-methoxy}proyn-1yl-2-nitrophenyl)-2,2-(dimethyl)-1-propoxymethyl]-2′-deoxyuridine], the IC50 in test [4] is 74 ± 7 µM.
Still for that read-out and setting: for `CC(C)(C)C(OCc1cn([C@H]2C[C@H](O)[C@@H](CO)O2)c(=O)[nH]c1=O)c1ccc(C#C[Si](C)(C)C)cc1[N+](=O)[O-]` (some centres unmarked) [VAL-1-49, 5-[1-(4-{trimethylsilyl}acetylenyl-2-nitrophenyl)-2,2-(dimethyl)-1-propoxymethyl]-2′-deoxyuridine] the value was 29 ± 3 µM; for `C#Cc1ccc(C(OCc2cn([C@H]3C[C@H](O)[C@@H](CO)O3)c(=O)[nH]c2=O)C(C)(C)C)c([N+](=O)[O-])c1` (some centres unmarked) [VAL-1-50, 5-[1-(4-acetylenyl-2-nitrophenyl)-2,2-(dimethyl)propoxymethyl]-2′-deoxyuridine], 89 ± 14 µM.

For the origin of these results see US20160101188A1, “NOVEL NANOCARRIER DELIVERED CANCER CHEMOTHERAPEUTIC AGENTS” (UNIVERSITY OF CINCINNATI, priority 2013, published 2016).
